The text below walks through data of the supplement of paper PMC10307832.

Holding throughout (assay): relative viability (nuclei count vs DMSO), 5 days (fraction); higher = more cells survive
Compound in assay [1]: COc1cc(Nc2ncc(F)c(Nc3ccc4c(n3)NC(=O)C(C)(C)O4)n2)cc(OC)c1OC [R406] + C[C@]1(O)C[C@@H](c2nc(-c3ccc4ccc(-c5ccccc5)nc4c3)c3c(N)nccn32)C1 [Linsitinib] (partner 1 µM)
An outline of the steps:
(§1)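 Cells from lung cancer lines were seeded into 1536-well plates and, one day later, dosed by pin tool. Treatments were either a single drug or a fixed dose of an anchor drug with five library-drug doses (not always all listed) in √10 steps. After 5 days, nuclei were stained in a one-step fixation (final 0.05% Triton X-100, 1% formaldehyde, 1 ug/ml Hoechst) and counted on 4× images, and relative viability is the treated-to-vehicle nuclei ratio, as the median of duplicate plates.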

Compound in assay [2]: COc1cc(Nc2ncc(F)c(Nc3ccc4c(n3)NC(=O)C(C)(C)O4)n2)cc(OC)c1OC [R406] + Nc1nc2[nH]cc(CCc3ccc(C(=O)N[C@@H](CCC(=O)O)C(=O)O)cc3)c2c(=O)[nH]1 [Pemetrexed] (partner 0.2 µM)
In a few lines:
as §1

Compound in assay [3]: O=C(/C=C/c1cccnc1)NCCCCC1CCN(C(=O)c2ccccc2)CC1 [Daporinad] + CS(=O)(=O)CCNCc1ccc(-c2ccc3ncnc(Nc4ccc(OCc5cccc(F)c5)c(Cl)c4)c3c2)o1 [Lapatinib] (partner 2 µM)
In a few lines: as §1

Compound in assay [4]: COc1cc(Nc2ncc(F)c(Nc3ccc4c(n3)NC(=O)C(C)(C)O4)n2)cc(OC)c1OC [R406] + Cc1nc(Nc2ncc(C(=O)Nc3c(C)cccc3Cl)s2)cc(N2CCN(CCO)CC2)n1 [Dasatinib] (partner 0.075 µM)
In a few lines:
as §1

HCC-44: the relative viability in assay [1] (first compound 0.08 µM) is 0.62; in assay [1] (first compound 0.253 µM), 0.729; in assay [1] (first compound 0.8 µM), 0.758; in assay [1] (first compound 2.53 µM), 0.688; in assay [1] (first compound 8 µM) it was 0.305; in assay [2] (first compound 0.08 µM), 0.585. The relative viability in assay [2] (first compound 0.253 µM) amounted to 0.621; in assay [2] (first compound 0.8 µM) it was 0.603; in assay [2] (first compound 2.53 µM), 0.601; in assay [2] (first compound 8 µM), 0.726; in assay [3] (first compound 0.0005 µM), 1.06; in assay [3] (first compound 0.001581 µM), 1.08. The figures for the relative viability in assay [3] (first compound 0.005 µM) and in assay [3] (first compound 0.01581 µM) were 1.07 and 0.937, respectively.

HCC-78: the relative viability stood at 0.534 in assay [1] (first compound 0.08 µM); 0.394 in assay [1] (first compound 0.253 µM); 0.544 in assay [1] (first compound 0.8 µM); 0.489 in assay [1] (first compound 2.53 µM); 0.25 in assay [1] (first compound 8 µM); 0.362 in assay [4] (first compound 0.08 µM). Moreover, the relative viability in assay [4] (first compound 0.253 µM) came out at 0.335; in assay [4] (first compound 0.8 µM) it was 0.4; in assay [4] (first compound 2.53 µM) it was 0.307; in assay [4] (first compound 8 µM), 0.237; in assay [2] (first compound 0.08 µM), 0.807; in assay [2] (first compound 0.253 µM) it was 0.972. Further, the relative viability in assay [2] (first compound 0.8 µM) amounted to 0.962; in assay [2] (first compound 2.53 µM), 0.847; in assay [2] (first compound 8 µM), 0.878; in assay [3] (first compound 0.0005 µM), 0.749; in assay [3] (first compound 0.001581 µM), 0.705; in assay [3] (first compound 0.005 µM), 0.854. Moreover, in assay [3] (first compound 0.01581 µM), the relative viability stood at 1.18.

For the cell line HCC-366, the relative viability was determined as 0.676 in assay [1] (first compound 0.08 µM); 0.776 in assay [1] (first compound 0.253 µM); 0.87 in assay [1] (first compound 0.8 µM); 0.0785 in assay [1] (first compound 8 µM); 0.62 in assay [4] (first compound 0.08 µM); 0.799 in assay [4] (first compound 0.253 µM). For the same cell line, the relative viability in assay [4] (first compound 0.8 µM) is 0.735; in assay [4] (first compound 2.53 µM), 0.546; in assay [4] (first compound 8 µM), 0.235; in assay [2] (first compound 0.08 µM), 0.161; in assay [2] (first compound 0.253 µM), 0.17; in assay [2] (first compound 0.8 µM), 0.172. For the same cell line, the relative viability in assay [2] (first compound 2.53 µM) came out at 0.164; in assay [2] (first compound 8 µM) it was 0.132; in assay [3] (first compound 0.0005 µM), 1.06; in assay [3] (first compound 0.001581 µM) it was 1.02; in assay [3] (first compound 0.005 µM) it was 1.08; in assay [3] (first compound 0.01581 µM), 1.02.

For HCC-827, the relative viability was found to be 0.975 in assay [1] (first compound 0.08 µM); 0.929 in assay [1] (first compound 0.253 µM); 0.937 in assay [1] (first compound 0.8 µM); 0.886 in assay [1] (first compound 2.53 µM); 0.477 in assay [1] (first compound 8 µM); 0.309 in assay [4] (first compound 0.08 µM). Also, the relative viability in assay [4] (first compound 0.253 µM) amounted to 0.252; in assay [4] (first compound 0.8 µM), 0.325; in assay [4] (first compound 2.53 µM), 0.312; in assay [4] (first compound 8 µM), 0.229; in assay [2] (first compound 0.08 µM), 0.259; in assay [2] (first compound 0.253 µM) it was 0.262. Moreover, the relative viability in assay [2] (first compound 0.8 µM) stood at 0.264; in assay [2] (first compound 2.53 µM), 0.229; in assay [2] (first compound 8 µM) it was 0.193; in assay [3] (first compound 0.0005 µM), 0.454; in assay [3] (first compound 0.001581 µM) it was 0.19; in assay [3] (first compound 0.005 µM) it was 0.212. The relative viability in assay [3] (first compound 0.01581 µM) worked out at 0.191.

As to HOP-62, the relative viability in assay [1] (first compound 0.08 µM) was 0.773; in assay [1] (first compound 0.253 µM) it was 0.97; in assay [1] (first compound 0.8 µM), 0.936; in assay [1] (first compound 2.53 µM) it was 0.684; in assay [1] (first compound 8 µM) it was 0.865; in assay [4] (first compound 0.08 µM), 0.618. Also, the relative viability in assay [4] (first compound 0.253 µM) amounted to 0.73; in assay [4] (first compound 0.8 µM), 0.797; in assay [4] (first compound 2.53 µM) it was 0.729; in assay [4] (first compound 8 µM), 0.391; in assay [2] (first compound 0.08 µM) it was 0.315; in assay [2] (first compound 0.253 µM), 0.348. In addition, the relative viability amounted to 0.297 in assay [2] (first compound 0.8 µM); 0.412 in assay [2] (first compound 2.53 µM); 0.344 in assay [2] (first compound 8 µM); 1.13 in assay [3] (first compound 0.001581 µM); 1.04 in assay [3] (first compound 0.005 µM); 0.505 in assay [3] (first compound 0.01581 µM).

Regarding IA-LM, the relative viability in assay [1] (first compound 0.08 µM) is 0.746; in assay [1] (first compound 0.253 µM), 0.901; in assay [1] (first compound 0.8 µM), 0.921; in assay [1] (first compound 2.53 µM), 1.01; in assay [1] (first compound 8 µM), 0.887; in assay [3] (first compound 0.0005 µM), 1.02. Further, the figures for the relative viability in assay [3] (first compound 0.001581 µM), in assay [3] (first compound 0.005 µM) and in assay [3] (first compound 0.01581 µM) were 0.771, 0.664 and 0.876, respectively.

LC-2-ad: the relative viability amounted to 0.828 in assay [1] (first compound 0.08 µM); 0.832 in assay [1] (first compound 0.253 µM); 0.729 in assay [1] (first compound 0.8 µM); 0.385 in assay [1] (first compound 2.53 µM); 0.158 in assay [1] (first compound 8 µM); 0.572 in assay [4] (first compound 0.08 µM). Besides, the relative viability in assay [4] (first compound 0.253 µM) worked out at 0.649; in assay [4] (first compound 0.8 µM), 0.62; in assay [4] (first compound 2.53 µM), 0.282; in assay [4] (first compound 8 µM) it was 0.203; in assay [2] (first compound 0.08 µM), 0.281; in assay [2] (first compound 0.253 µM), 0.322. Further, the relative viability in assay [2] (first compound 0.8 µM) is 0.238; in assay [2] (first compound 2.53 µM), 0.238; in assay [2] (first compound 8 µM) it was 0.216; in assay [3] (first compound 0.0005 µM), 0.959; in assay [3] (first compound 0.001581 µM) it was 1.03; in assay [3] (first compound 0.005 µM), 0.936. The relative viability in assay [3] (first compound 0.01581 µM) is 0.972.

Turning to LCLC-97TM1, the relative viability in assay [1] (first compound 0.08 µM) worked out at 0.192; in assay [1] (first compound 0.253 µM), 0.191; in assay [1] (first compound 0.8 µM), 0.218; in assay [1] (first compound 2.53 µM), 0.172; in assay [1] (first compound 8 µM), 0.182; in assay [4] (first compound 0.08 µM) it was 0.83. In addition, the relative viability in assay [4] (first compound 0.253 µM) was found to be 0.863; in assay [4] (first compound 0.8 µM), 0.793; in assay [4] (first compound 2.53 µM) it was 0.722; in assay [4] (first compound 8 µM), 0.602; in assay [2] (first compound 0.08 µM), 0.182; in assay [2] (first compound 0.253 µM), 0.2. For the same cell line, the relative viability in assay [2] (first compound 0.8 µM) was found to be 0.171; in assay [2] (first compound 2.53 µM) it was 0.183; in assay [2] (first compound 8 µM) it was 0.194; in assay [3] (first compound 0.0005 µM), 0.813; in assay [3] (first compound 0.001581 µM), 0.795; in assay [3] (first compound 0.005 µM), 1.2. Moreover, the relative viability in assay [3] (first compound 0.01581 µM) was 0.797.
